Laboratory results from patent US20240139213A1 (priority 2017, published 2024).

Tested on: Subjects with a variety of atopic conditions
Type: in vivo, human
Design: key: a score of 1 was given if symptoms worsened; a score of 2 was given if there was no change in symptoms; a score of 3 was given if there was some improvement in symptoms; a score of 4 was given if there were marked improvement in symptoms
Settings: Subject D; eosinophilic esophagitis and GERD; Vitamin D3 4000 IU for 9 months without a probiotic compound

## C=C1CC[C@H](O)C/C1=C/C=C1\CCC[C@]2(C)[C@@H]([C@H](C)CCCC(C)C)CC[C@@H]12 [Vitamin D3]
  score on 4 point scale: 2
